In publication PMC2813745, “A novel inhibitor of the PI3K/Akt pathway based on the structure of inositol 1,3,4,5,6-pentakisphosphate” (British Journal of Cancer, 2010):

Key:
AMPK A1/B1/G1 = AMPK A1/B1/G1 (Homo sapiens, UniProt Q13131); experiment: SelectScreen kinase profiling: AMPK A1/B1/G1; type: biochemical; settings: 1 µM compound; [ATP] 50 µM
Procedure: (§1) Effect of the indicated compounds on the activity of various kinases was assessed by SelectScreen Kinase Profiling Service (Invitrogen-Life Technologies, Paisley, UK). Assays were performed using 1 μM of the tested compounds and ATP concentration as indicated in the corresponding tables. In the case of […] a screen using 10 μM of the compound was also carried out, as indicated in the corresponding table.

CDK1/cyclin B = CDK1/cyclin B (Homo sapiens, UniProt P06493); experiment: SelectScreen kinase profiling: CDK1/cyclin B; type: biochemical; settings: [ATP] 25 µM
Procedure: as §1

CDK2/cyclin A = CDK2/cyclin A (Homo sapiens, UniProt P24941); experiment: SelectScreen kinase profiling: CDK2/cyclin A; type: biochemical; settings: [ATP] 25 µM
Procedure: as §1

CDK5/p35 = CDK5/p35 (Homo sapiens, UniProt Q00535); experiment: SelectScreen kinase profiling: CDK5/p35; type: biochemical; settings: [ATP] 10 µM
Procedure: as §1

CHEK1 (CHK1) = CHEK1 (CHK1) (Homo sapiens, UniProt O14757); experiment: SelectScreen kinase profiling: CHEK1; type: biochemical; settings: [ATP] 50 µM
Procedure: as §1

CHEK2 (CHK2) = CHEK2 (CHK2) (Homo sapiens, UniProt O96017); experiment: SelectScreen kinase profiling: CHEK2; type: biochemical; settings: [ATP] 75 µM
Procedure: as §1

CSNK1G1 (CK1γ1) = CSNK1G1 (CK1γ1) (Homo sapiens, UniProt Q9HCP0); experiment: SelectScreen kinase profiling: CSNK1G1; type: biochemical; settings: [ATP] 5 µM
Procedure: as §1

CSNK2A2 (CK2α2) = CSNK2A2 (CK2α2) (Homo sapiens, UniProt P19784); experiment: SelectScreen kinase profiling: CSNK2A2; type: biochemical; settings: [ATP] 50 µM
Procedure: as §1

GSK3B (GSK3β) = GSK3B (GSK3β) (Homo sapiens, UniProt P49841); experiment: SelectScreen kinase profiling: GSK3B; type: biochemical; settings: [ATP] 10 µM
Procedure: as §1

IRAK4 = IRAK4 (Homo sapiens, UniProt Q9NWZ3); experiment: SelectScreen kinase profiling: IRAK4; type: biochemical; settings: [ATP] 25 µM
Procedure: as §1

JAK1 = JAK1 (Homo sapiens, UniProt P23458); experiment: SelectScreen kinase profiling: JAK1; type: biochemical; settings: [ATP] 75 µM
Procedure: as §1

MAPK3 (ERK1) = MAPK3 (ERK1) (Homo sapiens, UniProt P27361); experiment: SelectScreen kinase profiling: MAPK3; type: biochemical; settings: [ATP] 50 µM
Procedure: as §1

MAPK9 (JNK2) = MAPK9 (JNK2) (Homo sapiens, UniProt P45984); experiment: SelectScreen kinase profiling: MAPK9; type: biochemical; settings: [ATP] 100 µM
Procedure: as §1

MARK1 (MARK) = MARK1 (MARK) (Homo sapiens, UniProt Q9P0L2); experiment: SelectScreen kinase profiling: MARK1; type: biochemical; settings: [ATP] 5 µM
Procedure: as §1

PRKACA (PKA) = PRKACA (PKA) (Homo sapiens, UniProt P17612); experiment: SelectScreen kinase profiling: PRKACA; type: biochemical; settings: [ATP] 5 µM
Procedure: as §1

PRKCB1 (PKCβI) = PRKCB1 (PKCβI) (Homo sapiens, UniProt P05771); experiment: SelectScreen kinase profiling: PRKCB1; type: biochemical; settings: [ATP] 200 µM
Procedure: as §1

ROCK2 = ROCK2 (Homo sapiens, UniProt O75116); experiment: SelectScreen kinase profiling: ROCK2; type: biochemical; settings: [ATP] 50 µM
Procedure: as §1

CDK9/cyclin T1 = CDK9/cyclin T1 (Homo sapiens, UniProt P50750); experiment: SelectScreen kinase profiling: CDK9/cyclin T1; type: biochemical; settings: [ATP] 25 µM
Procedure: as §1

CHUK (IKKα) = CHUK (IKKα) (Homo sapiens, UniProt O15111); experiment: SelectScreen kinase profiling: CHUK; type: biochemical; settings: [ATP] 10 µM
Procedure: as §1

PI4KB (PI4Kβ) = PI4KB (PI4Kβ) (Homo sapiens, UniProt Q9UBF8); experiment: SelectScreen kinase profiling: PI4KB; type: biochemical; settings: [ATP] 5 µM
Procedure: as §1

[1] = molecular target: PIK3CD/PIK3R1(p110δ/p85α) (Homo sapiens, UniProt O00329); experiment: SelectScreen kinase profiling: PIK3CD/PIK3R1; type: biochemical; settings: [ATP] 25 µM
Procedure: as §1

Akt1 (PKBα) = Akt1 (PKBα) (Homo sapiens, UniProt P31749); experiment: SelectScreen kinase profiling: Akt1; type: biochemical; settings: 10-point titration; [ATP] 75 μM
Procedure: Effect of the indicated compounds on the activity of various kinases was assessed by SelectScreen Kinase Profiling Service (Invitrogen-Life Technologies, Paisley, UK). […] In the case of […] a screen using 10 μM of the compound was also carried out, as indicated in the corresponding table.

PC3 [2] = experiment: Cell survival by cell counting, PC3; type: cell-based, human; settings: PC3, 72 h
Procedure: (§2) Cells seeded in a 24-well plate were treated with the indicated compounds in serum free DMEM or DMEM containing 0.5% FBS (PC3). After 72 h, the number of surviving cells was assessed by manual cell counting or by using the cell counter CDA-500 (Sysmex, Milton Keynes, UK). Alternatively, after 48 h, the number of apoptotic cells was assessed by acridine orange/ethidium bromide assay as described ([Piccolo et al, 2004]; [Maffucci et al, 2005]). SRB test was carried out in SKOV-3 and PC3 seeded in 96-well plate (3800 cells per well or 5800 cells per well, respectively) after 72 h of treatment as described ([Cappella et al, 2001]).
(§3) The number of surviving cells was assessed by cell counting. Data are mean±s.e. of n=3 (A), n=6 (B), n=3 (C) and n=4 (D) independent experiments carried out in duplicate. ^*=P<0.01; ^**=P<0.05. […] After 72 h the number of surviving cells was assessed by SRB assay. Data are mean±s.e. of n=2 independent experiments.
Data are mean±s.e. of n=4 independent experiments carried out in duplicate. […] Data are mean±s.e. of n=5 independent experiments carried out in duplicate. […] In all cases (A–D), cells were treated for 72 h and the number of surviving cells was assessed by cell counting. […] In all cases (E, F), cells were treated for 72 h and the number of surviving cells was assessed by SRB assay and data are mean±s.e. of two experiments carried out in quadruplicate.

PC3 [3] = experiment: SRB assay, PC3; type: cell-based, human; settings: PC3, 72 h
Procedure: as §2, §3
Data are mean±s.e. of n=4 independent experiments carried out in duplicate. […] Data are mean±s.e. of n=5 independent experiments carried out in duplicate. […] Data are mean±s.e. of n=6 independent experiments carried out in duplicate. […] Data are mean±s.e. of n=2 independent experiments carried out in duplicate. In all cases (A–D), cells were treated for 72 h and the number of surviving cells was assessed by cell counting. […] In all cases (E, F), cells were treated for 72 h and the number of surviving cells was assessed by SRB assay and data are mean±s.e. of two experiments carried out in quadruplicate.

Water solubility = type: physicochemical

CDK5/p35, sequence (Q00535 whole entry): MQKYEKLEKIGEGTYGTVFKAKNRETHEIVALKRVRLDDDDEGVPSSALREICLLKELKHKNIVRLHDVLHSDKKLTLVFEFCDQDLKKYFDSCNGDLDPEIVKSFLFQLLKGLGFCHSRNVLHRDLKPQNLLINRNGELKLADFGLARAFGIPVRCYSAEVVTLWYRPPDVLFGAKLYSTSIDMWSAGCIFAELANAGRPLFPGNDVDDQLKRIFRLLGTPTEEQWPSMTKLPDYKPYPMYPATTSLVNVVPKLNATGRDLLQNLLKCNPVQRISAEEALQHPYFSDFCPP
CDK5/p35, sequence (Q15078 whole entry partner): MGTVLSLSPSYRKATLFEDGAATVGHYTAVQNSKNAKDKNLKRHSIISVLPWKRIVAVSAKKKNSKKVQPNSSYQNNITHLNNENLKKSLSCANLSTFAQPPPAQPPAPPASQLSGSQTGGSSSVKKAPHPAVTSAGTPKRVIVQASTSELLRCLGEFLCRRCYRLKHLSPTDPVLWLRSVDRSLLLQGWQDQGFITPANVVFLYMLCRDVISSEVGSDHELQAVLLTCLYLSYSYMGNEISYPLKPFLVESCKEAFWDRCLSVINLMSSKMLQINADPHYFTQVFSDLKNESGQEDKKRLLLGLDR
IRAK4, sequence (Q9NWZ3 whole entry): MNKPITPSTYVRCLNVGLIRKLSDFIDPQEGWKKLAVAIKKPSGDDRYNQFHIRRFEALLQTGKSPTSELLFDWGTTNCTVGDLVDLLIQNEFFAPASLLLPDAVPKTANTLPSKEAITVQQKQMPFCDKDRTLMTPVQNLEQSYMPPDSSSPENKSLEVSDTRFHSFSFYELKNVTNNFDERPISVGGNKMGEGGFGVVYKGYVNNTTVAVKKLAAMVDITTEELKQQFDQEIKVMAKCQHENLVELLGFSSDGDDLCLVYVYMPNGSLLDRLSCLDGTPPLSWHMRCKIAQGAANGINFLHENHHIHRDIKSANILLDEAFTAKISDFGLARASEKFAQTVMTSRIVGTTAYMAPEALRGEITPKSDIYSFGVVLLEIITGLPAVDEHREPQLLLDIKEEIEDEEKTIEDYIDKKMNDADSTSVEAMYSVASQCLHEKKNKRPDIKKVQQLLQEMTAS
PRKCB1 (PKCβI), sequence (P05771 whole entry): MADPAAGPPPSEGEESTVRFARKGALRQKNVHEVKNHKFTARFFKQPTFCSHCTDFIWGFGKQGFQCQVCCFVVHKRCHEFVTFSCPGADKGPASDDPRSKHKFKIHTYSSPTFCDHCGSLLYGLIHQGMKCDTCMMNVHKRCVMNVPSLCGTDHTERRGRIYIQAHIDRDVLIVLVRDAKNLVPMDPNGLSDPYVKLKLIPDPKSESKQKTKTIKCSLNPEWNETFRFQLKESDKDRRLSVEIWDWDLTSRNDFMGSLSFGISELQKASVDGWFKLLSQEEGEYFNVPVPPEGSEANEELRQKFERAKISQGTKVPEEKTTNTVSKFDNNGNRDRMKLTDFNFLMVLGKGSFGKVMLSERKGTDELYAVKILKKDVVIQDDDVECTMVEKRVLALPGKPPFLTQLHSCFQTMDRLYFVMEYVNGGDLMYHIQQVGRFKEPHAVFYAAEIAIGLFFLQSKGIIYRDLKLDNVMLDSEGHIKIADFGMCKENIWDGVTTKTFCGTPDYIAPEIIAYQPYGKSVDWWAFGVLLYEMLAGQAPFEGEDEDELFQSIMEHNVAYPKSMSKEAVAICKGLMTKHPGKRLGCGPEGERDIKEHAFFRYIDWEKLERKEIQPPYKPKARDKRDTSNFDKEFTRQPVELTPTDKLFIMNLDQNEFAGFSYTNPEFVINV
CSNK1G1 (CK1γ1), sequence (Q9HCP0 whole entry): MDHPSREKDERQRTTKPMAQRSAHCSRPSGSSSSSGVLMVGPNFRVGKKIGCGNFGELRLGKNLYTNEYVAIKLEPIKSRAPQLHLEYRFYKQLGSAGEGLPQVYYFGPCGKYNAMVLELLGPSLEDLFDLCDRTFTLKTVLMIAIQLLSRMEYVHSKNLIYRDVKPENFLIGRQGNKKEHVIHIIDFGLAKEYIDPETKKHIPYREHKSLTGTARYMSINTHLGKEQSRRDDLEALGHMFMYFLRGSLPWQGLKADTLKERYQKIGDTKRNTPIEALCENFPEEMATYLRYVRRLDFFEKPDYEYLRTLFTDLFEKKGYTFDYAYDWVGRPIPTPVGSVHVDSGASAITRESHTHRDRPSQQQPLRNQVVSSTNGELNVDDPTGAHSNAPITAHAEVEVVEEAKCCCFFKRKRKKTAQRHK
ROCK2, sequence (O75116 whole entry): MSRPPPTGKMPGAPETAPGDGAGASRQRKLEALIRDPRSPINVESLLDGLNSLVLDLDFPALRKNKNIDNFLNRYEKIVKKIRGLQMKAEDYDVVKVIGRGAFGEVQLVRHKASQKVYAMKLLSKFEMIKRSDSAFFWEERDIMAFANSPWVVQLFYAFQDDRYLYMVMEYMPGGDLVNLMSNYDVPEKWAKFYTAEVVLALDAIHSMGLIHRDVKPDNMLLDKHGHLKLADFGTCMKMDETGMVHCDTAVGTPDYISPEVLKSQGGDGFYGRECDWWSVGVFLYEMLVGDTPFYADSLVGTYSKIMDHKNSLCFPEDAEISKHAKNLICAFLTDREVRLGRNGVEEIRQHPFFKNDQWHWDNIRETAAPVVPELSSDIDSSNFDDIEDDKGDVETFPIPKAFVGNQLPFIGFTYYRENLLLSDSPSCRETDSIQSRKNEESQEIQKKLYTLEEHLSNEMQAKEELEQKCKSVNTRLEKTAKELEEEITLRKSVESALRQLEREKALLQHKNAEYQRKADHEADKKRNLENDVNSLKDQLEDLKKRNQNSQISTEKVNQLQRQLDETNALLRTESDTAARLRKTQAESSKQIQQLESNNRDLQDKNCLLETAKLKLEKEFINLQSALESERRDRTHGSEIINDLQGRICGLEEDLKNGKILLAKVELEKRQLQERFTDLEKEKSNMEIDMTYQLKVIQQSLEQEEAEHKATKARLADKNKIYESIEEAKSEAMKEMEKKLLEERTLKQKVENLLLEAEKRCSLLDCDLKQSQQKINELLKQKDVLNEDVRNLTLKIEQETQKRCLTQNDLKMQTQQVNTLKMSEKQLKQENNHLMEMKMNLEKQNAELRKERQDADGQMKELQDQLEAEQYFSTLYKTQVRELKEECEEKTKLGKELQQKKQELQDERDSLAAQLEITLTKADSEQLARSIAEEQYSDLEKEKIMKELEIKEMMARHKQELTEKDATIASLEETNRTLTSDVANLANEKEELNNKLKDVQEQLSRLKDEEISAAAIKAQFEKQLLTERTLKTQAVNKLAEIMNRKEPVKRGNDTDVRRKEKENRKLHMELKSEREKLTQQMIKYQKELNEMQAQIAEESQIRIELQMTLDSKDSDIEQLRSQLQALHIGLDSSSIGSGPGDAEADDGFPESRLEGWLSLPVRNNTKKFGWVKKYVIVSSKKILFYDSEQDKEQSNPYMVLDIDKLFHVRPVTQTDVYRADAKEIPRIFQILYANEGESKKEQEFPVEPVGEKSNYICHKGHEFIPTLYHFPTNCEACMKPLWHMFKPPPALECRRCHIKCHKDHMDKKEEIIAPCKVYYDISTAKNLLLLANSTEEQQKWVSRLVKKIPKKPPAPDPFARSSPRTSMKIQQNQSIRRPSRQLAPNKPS
GSK3B (GSK3β), sequence (P49841 whole entry): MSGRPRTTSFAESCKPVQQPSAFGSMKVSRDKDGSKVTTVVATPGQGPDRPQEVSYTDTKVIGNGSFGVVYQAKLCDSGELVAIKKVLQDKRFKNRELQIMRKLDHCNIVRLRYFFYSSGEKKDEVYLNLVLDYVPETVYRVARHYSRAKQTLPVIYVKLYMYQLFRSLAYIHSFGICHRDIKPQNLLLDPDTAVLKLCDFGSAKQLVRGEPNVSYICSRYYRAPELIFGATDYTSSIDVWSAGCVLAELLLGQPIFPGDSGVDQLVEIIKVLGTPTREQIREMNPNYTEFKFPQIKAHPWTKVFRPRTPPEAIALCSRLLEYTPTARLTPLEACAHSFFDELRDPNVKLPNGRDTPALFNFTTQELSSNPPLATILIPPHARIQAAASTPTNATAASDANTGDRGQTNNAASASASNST
Akt1 (PKBα), sequence (P31749 whole entry): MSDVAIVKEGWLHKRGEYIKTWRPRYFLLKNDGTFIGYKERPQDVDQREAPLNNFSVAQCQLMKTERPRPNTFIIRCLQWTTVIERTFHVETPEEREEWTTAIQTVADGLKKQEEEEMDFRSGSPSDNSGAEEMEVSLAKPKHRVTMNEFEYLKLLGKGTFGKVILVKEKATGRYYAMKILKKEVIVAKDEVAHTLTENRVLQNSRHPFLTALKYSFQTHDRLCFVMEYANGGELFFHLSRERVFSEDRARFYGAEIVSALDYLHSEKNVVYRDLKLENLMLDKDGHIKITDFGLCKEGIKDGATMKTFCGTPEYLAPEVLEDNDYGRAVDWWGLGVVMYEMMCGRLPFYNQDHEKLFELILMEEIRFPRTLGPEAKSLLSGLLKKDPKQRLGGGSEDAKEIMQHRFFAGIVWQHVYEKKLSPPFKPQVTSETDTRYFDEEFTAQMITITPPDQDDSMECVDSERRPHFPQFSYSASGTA
MAPK9 (JNK2), sequence (P45984 whole entry): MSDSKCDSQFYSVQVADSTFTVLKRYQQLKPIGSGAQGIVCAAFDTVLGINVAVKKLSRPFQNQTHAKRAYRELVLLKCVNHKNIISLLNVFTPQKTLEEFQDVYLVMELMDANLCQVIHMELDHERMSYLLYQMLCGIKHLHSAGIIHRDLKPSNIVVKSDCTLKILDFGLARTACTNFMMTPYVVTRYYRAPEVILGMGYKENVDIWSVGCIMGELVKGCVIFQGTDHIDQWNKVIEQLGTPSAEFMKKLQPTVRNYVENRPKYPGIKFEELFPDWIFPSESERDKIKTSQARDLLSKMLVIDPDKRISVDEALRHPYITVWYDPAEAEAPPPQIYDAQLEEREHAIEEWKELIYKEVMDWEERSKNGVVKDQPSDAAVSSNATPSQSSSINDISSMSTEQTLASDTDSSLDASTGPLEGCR

O=P(O)(O)OC1C(OCc2ccccc2)C(OP(=O)(O)O)C(OP(=O)(O)O)C(OP(=O)(O)O)C1OP(=O)(O)O (centres unmarked) [2-O-Bn-InsP5, 2-O-benzyl-myo-inositol 1,3,4,5,6-pentakisphosphate]
inhibition at 1 µM (AMPK A1/B1/G1): 16% | inhibition at 1 µM (CDK1/cyclin B; 1 µM compound): 9% | inhibition at 1 µM (CDK2/cyclin A; 1 µM compound): 2% | inhibition at 1 µM (CDK5/p35; 1 µM compound): 2% | inhibition at 1 µM (CHEK1 (CHK1); 1 µM compound): 15% | inhibition at 1 µM (CHEK2 (CHK2); 1 µM compound): 12% | inhibition at 1 µM (CSNK1G1 (CK1γ1); 1 µM compound): 7% | inhibition at 1 µM (CSNK2A2 (CK2α2); 1 µM compound): 2% | inhibition at 1 µM (GSK3B (GSK3β); 1 µM compound): 11% | inhibition at 1 µM (IRAK4; 1 µM compound): -35% | inhibition at 1 µM (JAK1; 1 µM compound): -1% | inhibition at 1 µM (MAPK3 (ERK1); 1 µM compound): 19% | inhibition at 1 µM (MAPK9 (JNK2); 1 µM compound): -1% | inhibition at 1 µM (MARK1 (MARK); 1 µM compound): 0% | inhibition at 1 µM (PRKACA (PKA); 1 µM compound): 4% | inhibition at 1 µM (PRKCB1 (PKCβI); 1 µM compound): 11% | inhibition at 1 µM (ROCK2; 1 µM compound): 13% | inhibition at 1 µM (CDK9/cyclin T1; 1 µM compound): -11% | inhibition at 1 µM (CHUK (IKKα); 1 µM compound): -2% | inhibition at 1 µM (PI4KB (PI4Kβ); 1 µM compound): 0% | inhibition at 1 µM ([1]; 1 µM compound): 6% | IC50 (Akt1 (PKBα)): > 100 µM | number of surviving cells (PC3 [2]): stronger activity of 2-O-Bn-InsP5 compared with InsP5 | number of surviving cells (PC3 [3]): Higher activity | water solubility (Water solubility): water soluble compound

O=P(O)(O)OC1C(O)C(OP(=O)(O)O)C(OP(=O)(O)O)C(OP(=O)(O)O)C1OP(=O)(O)O (centres unmarked) [InsP5, inositol 1,3,4,5,6-pentakisphosphate]
inhibition at 1 µM (AMPK A1/B1/G1): 4% | inhibition at 10 µM (CDK1/cyclin B; 10 µM compound): 16% | inhibition at 10 µM (CDK2/cyclin A; 10 µM compound): 9% | inhibition at 10 µM (CDK5/p35; 10 µM compound): 5% | inhibition at 10 µM (CHEK1 (CHK1); 10 µM compound): 17% | inhibition at 10 µM (CHEK2 (CHK2); 10 µM compound): 15% | inhibition at 10 µM (CSNK1G1 (CK1γ1); 10 µM compound): 13% | inhibition at 10 µM (CSNK2A2 (CK2α2); 10 µM compound): 18% | inhibition at 10 µM (GSK3B (GSK3β); 10 µM compound): 20% | inhibition at 10 µM (IRAK4; 10 µM compound): -5% | inhibition at 10 µM (JAK1; 10 µM compound): -2% | inhibition at 10 µM (MAPK3 (ERK1); 10 µM compound): 3% | inhibition at 10 µM (MAPK9 (JNK2); 10 µM compound): 23% | inhibition at 10 µM (MARK1 (MARK); 10 µM compound): 7% | inhibition at 10 µM (PRKACA (PKA); 10 µM compound): 5% | inhibition at 10 µM (PRKCB1 (PKCβI); 10 µM compound): 17% | inhibition at 10 µM (ROCK2; 10 µM compound): 15% | inhibition at 10 µM (CDK9/cyclin T1; 10 µM compound): 1% | inhibition at 10 µM (CHUK (IKKα); 10 µM compound): 3% | inhibition at 10 µM (PI4KB (PI4Kβ); 10 µM compound): 3% | inhibition at 10 µM ([1]; 10 µM compound): -2% | IC50 (Akt1 (PKBα)): > 100 µM | concentrations able to mimic the effect of 2-O-Bn-InsP5 (PC3 [3]): 200 to 300 µM | number of surviving cells (PC3 [3]): no effect in PC3 at concentrations up to 50 μM | water solubility (Water solubility): water soluble compound
